Test results as given in patent publication US8431556B2, “C-21-keto lupane derivatives preparation and use thereof” (Vertex Pharmaceuticals Incorporated, priority 2008, dated 2013).

Each compound was assayed on HIV-1 (HIVIIIB) (assay: HIV-1 replication in MT2 cell line with and without 30% human serum (viral RT activity in supernatant)). Details: Human immunodeficiency virus 1, MT2, MT-2 cells, with 30% human serum, average IC50 if tested more than once, read-out: MT-2 (HIVIIIB) with 30% HS IC50 range.
Assay type: cell-based
In short: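 MT2 cells infected with HIVIIIB at MOI 0.5 for 3 h, washed, then cultured with serially diluted compound in RPMI/10% FBS, with or without 30% human serum, at 37° C. Compound-containing medium refreshed at day 3. Replication measured as supernatant RT activity at day 5; IC50 and IC90 from curve fits.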
CC(C)C1=C2[C@H]3CC[C@@H]4[C@@]5(C)CC[C@H](OC(=O)CC(C)(C)C(=O)O)C(C)(C)[C@@H]5CC[C@@]4(C)[C@]3(C)CC[C@@]2(C(=O)NCC(F)(F)F)CC1=O [9-71, 3β-O-(3′,3′-Dimethylsuccinyl)-21-oxolup-18-en-28-oic acid N-(2,2,2-trifluoro-ethyl)-acetamide] showed an IC50 of under 199 nM. Compound CC(C)C1=C2[C@H]3CC[C@@H]4[C@@]5(C)CC[C@H](OC(=O)CC(C)(C)C(=O)O)C(C)(C)[C@@H]5CC[C@@]4(C)[C@]3(C)CC[C@@]2(C(=O)Nc2nccc(C(F)(F)F)n2)CC1=O [9-72, 3β-O-(3′,3′-Dimethylsuccinyl)-21-oxolup-18-en-28-oic acid N-4-trifluoro-pyrimidin-2-yl-acetamide] has an IC50 of under 199 nM. In the case of CC(C)C1=C2[C@H]3CC[C@@H]4[C@@]5(C)CC[C@H](OC(=O)CC(C)(C)C(=O)O)C(C)(C)[C@@H]5CC[C@@]4(C)[C@]3(C)CC[C@@]2(C(=O)NC(C)(C)C2CC2)CC1=O [9-73, 3β-O-(3′,3′-Dimethylsuccinyl)-21-oxolup-18-en-28-oic acid N-(1-cyclopropyl-1-methyl-ethyl)-acetamide], the IC50 is reported as under 199 nM. Work on CC(C)C1=C2[C@H]3CC[C@@H]4[C@@]5(C)CC[C@H](OC(=O)CC(C)(C)C(=O)O)C(C)(C)[C@@H]5CC[C@@]4(C)[C@]3(C)CC[C@@]2(C(=O)N2CCC(N(C)C)CC2)CC1=O [9-74, 3β-O-(3′,3′-Dimethylsuccinyl)-21-oxolup-18-en-28-oic acid N-(4-dimethylamino-piperidin-1-yl)-acetamide] yielded an IC50 of under 199 nM. CC(C)C1=C2[C@H]3CC[C@@H]4[C@@]5(C)CC[C@H](OC(=O)CC(C)(C)C(=O)O)C(C)(C)[C@@H]5CC[C@@]4(C)[C@]3(C)CC[C@@]2(C(=O)NC(C)C(F)(F)F)CC1=O (stereo partly drawn) [9-75, 3β-O-(3′,3′-Dimethylsuccinyl)-21-oxolup-18-en-28-oic acid N-(2,2,2-trifluoro-1-methyl-ethyl)-acetamide] was tested, and the IC50 was under 199 nM. For Cc1nnc(NC(=O)[C@@]23CC[C@]4(C)[C@H](CC[C@@H]5[C@@]6(C)CC[C@H](OC(=O)CC(C)(C)C(=O)O)C(C)(C)[C@@H]6CC[C@]54C)C2=C(C(C)C)C(=O)C3)s1 [9-76, 3β-O-(3′,3′-Dimethylsuccinyl)-21-oxolup-18-en-28-oic acid N-(5-methyl-[1,3,4]thiadiazol-2-yl)-acetamide], the IC50 was under 199 nM. With CC(C)C1=C2C3CCC4[C@@]5(C)CC[C@H](OC(=O)CC(C)(C)C(=O)O)C(C)(C)C5CC[C@@]4(C)[C@]3(C)CC[C@@]2(C(=O)NC(C)(C)C(F)(F)F)CC1=O (stereo partly drawn) [9-77, 3β-O-(3′,3′-Dimethylsuccinyl)-21-oxolup-18-en-28-oic acid N-(2,2,2-trifluoro-1,1-dimethyl-ethyl)-acetamide] the IC50 was under 199 nM. For CC(C)C1=C2C3CCC4[C@@]5(C)CC[C@H](OC(=O)CC(C)(C)C(=O)O)C(C)(C)C5CC[C@@]4(C)[C@]3(C)CC[C@@]2(C(=O)N(C)C(C)(C)C)CC1=O (stereo partly drawn) [9-78, 3β-O-(3′,3′-Dimethylsuccinyl)-21-oxolup-18-en-28-oic acid N-tert-butyl-N-methyl-acetamide], the IC50 was under 199 nM. Work on CC(C)C1=C2C3CCC4[C@@]5(C)CC[C@H](OC(=O)CC(C)(C)C(=O)O)C(C)(C)C5CC[C@@]4(C)[C@]3(C)CC[C@@]2(C(=O)NC[C@H]2CCCN2C(=O)OC(C)(C)C)CC1=O (stereo partly drawn) [9-79, 3β-O-(3′,3′-Dimethylsuccinyl)-21-oxolup-18-en-28-oic acid N-(R)-2-acetylaminomethyl-pyrrolidine-1-carboxylic acid tert-butyl ester] yielded an IC50 of under 199 nM. With CC(C)C1=C2C3CCC4[C@@]5(C)CC[C@H](OC(=O)CC(C)(C)C(=O)O)C(C)(C)C5CC[C@@]4(C)[C@]3(C)CC[C@@]2(C(=O)NC[C@@H]2CCCN2C(=O)OC(C)(C)C)CC1=O (stereo partly drawn) [9-80, 3β-O-(3′,3′-Dimethylsuccinyl)-21-oxolup-18-en-28-oic acid N-(S)-2-acetylaminomethyl-pyrrolidine-1-carboxylic acid tert-butyl ester] the IC50 was under 199 nM. CC(C)C1=C2C3CCC4[C@@]5(C)CC[C@H](OC(=O)CC(C)(C)C(=O)O)C(C)(C)C5CC[C@@]4(C)[C@]3(C)CC[C@@]2(C(=O)NC[C@H]2CCCN2)CC1=O (stereo partly drawn) [9-81, 3β-O-(3′,3′-Dimethylsuccinyl)-21-oxolup-18-en-28-oic acid N-((R)-1-pyrrolidin-2-ylmethyl)-acetamide] gave an IC50 of under 199 nM. CC(C)C1=C2C3CCC4[C@@]5(C)CC[C@H](OC(=O)CC(C)(C)C(=O)O)C(C)(C)C5CC[C@@]4(C)[C@]3(C)CC[C@@]2(C(=O)NC[C@@H]2CCCN2)CC1=O (stereo partly drawn) [9-82, 3β-O-(3′,3′-Dimethylsuccinyl)-21-oxolup-18-en-28-oic acid N-((S)-1-pyrrolidin-2-ylmethyl)-acetamide] was tested, and the IC50 was under 199 nM. CC(C)C1=C2C3CCC4[C@@]5(C)CC[C@H](OC(=O)CC(C)(C)C(=O)O)C(C)(C)C5CC[C@@]4(C)[C@]3(C)CC[C@@]2(C(=O)NC[C@H]2CCCN2C)CC1=O (stereo partly drawn) [9-83, 3β-O-(3′,3′-Dimethylsuccinyl)-21-oxolup-18-en-28-oic acid N-((R)-1-methyl-pyrrolidin-2-ylmethyl)-acetamide] gave an IC50 of under 199 nM. With CC(C)C1=C2C3CCC4[C@@]5(C)CC[C@H](OC(=O)CC(C)(C)C(=O)O)C(C)(C)C5CC[C@@]4(C)[C@]3(C)CC[C@@]2(C(=O)NC[C@@H]2CCCN2C)CC1=O (stereo partly drawn) [9-84, 3β-O-(3′,3′-Dimethylsuccinyl)-21-oxolup-18-en-28-oic acid N-((S)-1-methyl-pyrrolidin-2-ylmethyl)-acetamide] the IC50 was under 199 nM. CC(C)C1=C2[C@H]3CC[C@@H]4[C@@]5(C)CC[C@H](OC(=O)CC(C)(C)C(=O)O)C(C)(C)[C@@H]5CC[C@@]4(C)[C@]3(C)CC[C@@]2(C(=O)NC2CCC(F)(F)CC2)CC1=O [9-85, 3β-O-(3′,3′-Dimethylsuccinyl)-21-oxolup-18-en-28-oic acid N-(4,4-difluoro-cyclohexyl) acetamide] showed an IC50 of under 199 nM. CC(C)C1=C2C3CCC4[C@@]5(C)CC[C@H](OC(=O)CC(C)(C)C(=O)O)C(C)(C)C5CC[C@@]4(C)[C@]3(C)CC[C@@]2(C(=O)Nc2ccccc2Cl)CC1=O (stereo partly drawn) [9-86, 3β-O-(3′,3′-Dimethylsuccinyl)-21-oxolup-18-en-28-oic acid N-2-chloro-phen-1-yl acetamide] gave an IC50 of under 199 nM. Work on CC(C)C1=C2C3CCC4[C@@]5(C)CC[C@H](OC(=O)CC(C)(C)C(=O)O)C(C)(C)C5CC[C@@]4(C)[C@]3(C)CC[C@@]2(C(=O)Nc2ccccc2C(C)C)CC1=O (stereo partly drawn) [9-87, 3β-O-(3′,3′-Dimethylsuccinyl)-21-oxolup-18-en-28-oic acid N-2-isopropyl-phen-1-yl acetamide] yielded an IC50 of 200 to 999 nM. For CC(C)C1=C2C3CCC4[C@@]5(C)CC[C@H](OC(=O)CC(C)(C)C(=O)O)C(C)(C)C5CC[C@@]4(C)[C@]3(C)CC[C@@]2(C(=O)Nc2ccc(F)cc2)CC1=O (stereo partly drawn) [9-88, 3β-O-(3′,3′-Dimethylsuccinyl)-21-oxolup-18-en-28-oic acid N-4-fluoro-phen-1-yl acetamide], the IC50 was under 199 nM. With CC(C)C1=C2C3CCC4[C@@]5(C)CC[C@H](OC(=O)CC(C)(C)C(=O)O)C(C)(C)C5CC[C@@]4(C)[C@]3(C)CC[C@@]2(C(=O)Nc2ncc3ccccc3n2)CC1=O (stereo partly drawn) [9-89, 3β-O-(3′,3′-Dimethylsuccinyl)-21-oxolup-18-en-28-oic acid N-quinazolin-2-yl acetamide] the IC50 was under 199 nM. For CC(C)C1=C2C3CCC4[C@@]5(C)CC[C@H](OC(=O)CC(C)(C)C(=O)O)C(C)(C)C5CC[C@@]4(C)[C@]3(C)CC[C@@]2(C(=O)Nc2nnn(C)n2)CC1=O (stereo partly drawn) [9-90, 3β-O-(3′,3′-Dimethylsuccinyl)-21-oxolup-18-en-28-oic acid N-(1-methyl-1H-tetrazol-3-yl)-acetamide], the IC50 was under 199 nM. In the case of Cc1cc(NC(=O)[C@@]23CC[C@]4(C)C(CCC5[C@@]6(C)CC[C@H](OC(=O)CC(C)(C)C(=O)O)C(C)(C)C6CC[C@]54C)C2=C(C(C)C)C(=O)C3)no1 (stereo partly drawn) [9-91, 3β-O-(3′,3′-Dimethylsuccinyl)-21-oxolup-18-en-28-oic acid N-(5-methyl-isoxazol-3-yl)-acetamide], the IC50 is reported as under 199 nM. CC(C)C1=C2C3CCC4[C@@]5(C)CC[C@H](OC(=O)CC(C)(C)C(=O)O)C(C)(C)C5CC[C@@]4(C)[C@]3(C)CC[C@@]2(C(=O)N2Cc3ccccc3C2)CC1=O (stereo partly drawn) [9-92, 3β-O-(3′,3′-Dimethylsuccinyl)-21-oxolup-18-en-28-oic acid N-(1,3-dihydro-isoindol-2-yl)-acetamide] showed an IC50 of under 199 nM. With CC(C)C1=C2C3CCC4[C@@]5(C)CC[C@H](OC(=O)CC(C)(C)C(=O)O)C(C)(C)C5CC[C@@]4(C)[C@]3(C)CC[C@@]2(C(=O)NCC2CCC(F)(F)CC2)CC1=O (stereo partly drawn) [9-93, 3β-O-(3′,3′-Dimethylsuccinyl)-21-oxolup-18-en-28-oic acid N-(4,4-difluoro-cyclohexylmethyl)-acetamide] the IC50 was under 199 nM. CC(C)C1=C2[C@H]3CC[C@@H]4[C@@]5(C)CC[C@H](OC(=O)CC(C)(C)C(=O)O)C(C)(C)[C@@H]5CC[C@@]4(C)[C@]3(C)CC[C@@]2(C(=O)N2CCC(F)(F)CC2)CC1=O [9-94, 3β-O-(3′,3′-Dimethylsuccinyl)-21-oxolup-18-en-28-oic acid N-4,4-difluoro-piperidine acetamide] showed an IC50 of under 199 nM. In the case of CC(=O)N1CC2CCC(C1)N2C(=O)[C@@]12CC[C@]3(C)C(CCC4[C@@]5(C)CC[C@H](OC(=O)CC(C)(C)C(=O)O)C(C)(C)C5CC[C@]43C)C1=C(C(C)C)C(=O)C2 (stereo partly drawn) [9-95, 3β-O-(3′,3′-Dimethylsuccinyl)-21-oxolup-18-en-28-oic acid N-8-acetylamino-3,8-diaza-bicyclo[3.2.1]octane-3-acetamide], the IC50 is reported as under 199 nM.
